Reference: ChEMBL document CHEMBL4371025, “Discovery and evaluation of novel FAAH inhibitors in neuropathic pain model” (Bioorg Med Chem Lett, 2019)

Columns and labels:
CYP3A4 [1] = experiment: Selectivity ratio of IC50 for CYP3A4 in human liver microsomes using midazolam as substrate to IC50 for human transmembrane domain deficient FFAH expressed in Escherichia coli; assay type: toxicity; details: probe midazolam, read-out: Ratio IC50
[2] = Ratio of AUC (0 to 48 hrs) in liver to plasma of Sprague-Dawley rat at 10 mg/kg, po administered as single dose via gavage by LC-MS/MS analysis; assay type: ADME, organism-based; details: liver and plasma, read-out: Ratio AUC
[3] = Drug level in liver of Sprague-Dawley rat at 10 mg/kg, po administered as single dose via gavage measured at 4 hrs by LC-MS/MS analysis; assay type: ADME, organism-based; details: read-out: Drug uptake
[4] = Clearance in Sprague-Dawley rat at 3 mg/kg, iv or 10 mg/kg, po administered as single dose via gavage by LC-MS/MS analysis; assay type: ADME, organism-based; details: in vivo
CYP3A4 [5] = experiment: Selectivity ratio of IC50 for CYP3A4 in human liver microsomes using midazolam as substrate to IC50 for rat FFAH expressed in Escherichia coli; assay type: toxicity; details: probe midazolam, read-out: Ratio IC50
[6] = AUC (0 to 48 hrs) in liver of Sprague-Dawley rat at 10 mg/kg, po administered as single dose via gavage by LC-MS/MS analysis; assay type: ADME, organism-based; set-up: time < 48 hr, dose 10 mg/kg, route oral
CYP2C19 = experiment: Selectivity ratio of IC50 for CYP2C19 in human liver microsomes to IC50 for human transmembrane domain deficient FFAH expressed in Escherichia coli; assay type: toxicity; details: read-out: Ratio IC50
[7] = Drug level in plasma of Sprague-Dawley rat at 10 mg/kg, po administered as single dose via gavage measured at 4 hrs by LC-MS/MS analysis; assay type: ADME, organism-based
[8] = Ratio of drug level in brain to plasma in Sprague-Dawley rat at 3 mg/kg, iv or 10 mg/kg, po administered as single dose via gavage by LC-MS/MS analysis; assay type: ADME, organism-based; details: brain and plasma, read-out: BPR
[9] = Selectivity ratio of IC50 for MAGL (unknown origin) to IC50 for rat FFAH expressed in Escherichia coli; assay type: toxicity
[10] = AUC (0 to 48 hrs) in brain of Sprague-Dawley rat at 10 mg/kg, po administered as single dose via gavage by LC-MS/MS analysis; assay type: ADME, organism-based; set-up: dose 10 mg/kg, time < 48 hr, route oral
Cytochrome P450 2D6 = Cytochrome P450 2D6 (Homo sapiens, UniProt P10635); experiment: Inhibition of CYP2D6 in human liver microsomes using dextromethorphan as substrate preincubated for 5 mins followed by NADPH cofactor addition and measured after 10 mins by LC-MS/MS analysis; assay type: ADME
[11] = biological target: T1, Fatty-acid amide hydrolase 1 (Homo sapiens, UniProt O00519); experiment: Inhibition of human transmembrane domain deficient FFAH expressed in Escherichia coli using AAMCA as substrate incubated for 1 min measured for 50 mins by fluorescence assay
T1 sequence (O00519 whole entry): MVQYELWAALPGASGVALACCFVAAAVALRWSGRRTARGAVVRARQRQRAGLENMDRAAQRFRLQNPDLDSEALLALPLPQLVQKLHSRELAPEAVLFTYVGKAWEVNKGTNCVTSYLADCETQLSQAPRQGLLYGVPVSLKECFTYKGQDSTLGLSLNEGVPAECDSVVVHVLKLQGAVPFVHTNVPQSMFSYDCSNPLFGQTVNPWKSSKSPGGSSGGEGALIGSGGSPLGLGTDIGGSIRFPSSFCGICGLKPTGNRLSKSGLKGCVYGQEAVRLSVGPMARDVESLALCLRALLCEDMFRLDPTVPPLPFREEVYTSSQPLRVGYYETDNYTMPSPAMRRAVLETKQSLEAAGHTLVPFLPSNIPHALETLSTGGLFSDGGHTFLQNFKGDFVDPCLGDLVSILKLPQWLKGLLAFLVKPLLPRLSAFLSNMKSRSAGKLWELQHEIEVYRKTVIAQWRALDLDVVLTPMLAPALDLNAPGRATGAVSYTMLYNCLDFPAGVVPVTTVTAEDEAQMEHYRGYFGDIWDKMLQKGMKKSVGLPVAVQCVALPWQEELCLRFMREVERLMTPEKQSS

[12] = AUC (0 to 48 hrs) in plasma of Sprague-Dawley rat at 10 mg/kg, po administered as single dose via gavage by LC-MS/MS analysis; assay type: ADME, organism-based; set-up: time < 48 hr, dose 10 mg/kg, route oral
[13] = Drug level in plasma of Sprague-Dawley rat at 10 mg/kg, po administered as single dose via gavage measured at 2 hrs by LC-MS/MS analysis; assay type: ADME, organism-based
[14] = Volume of distribution at steady state in Sprague-Dawley rat at 3 mg/kg, iv administered as single dose by LC-MS/MS analysis; assay type: ADME, organism-based; details: in vivo, read-out: Vdss
Cytochrome P450 2C9 = Cytochrome P450 2C9 (Homo sapiens, UniProt P11712); experiment: Inhibition of CYP2C9 in human liver microsomes using diclofenac as substrate preincubated for 5 mins followed by NADPH cofactor addition and measured after 10 mins by LC-MS/MS analysis; assay type: ADME
CYP1A2 = experiment: Selectivity ratio of IC50 for CYP1A2 in human liver microsomes to IC50 for human transmembrane domain deficient FFAH expressed in Escherichia coli; assay type: toxicity; details: read-out: Ratio IC50
Cytochrome P450 3A4 = Cytochrome P450 3A4 (Homo sapiens, UniProt P08684); experiment: Inhibition of CYP3A4 in human liver microsomes using testosterone as substrate preincubated for 5 mins followed by NADPH cofactor addition and measured after 10 mins by LC-MS/MS analysis; assay type: ADME
[15] = Drug level in liver of Sprague-Dawley rat at 10 mg/kg, po administered as single dose via gavage measured at 8 hrs by LC-MS/MS analysis; assay type: ADME, organism-based; details: read-out: Drug uptake
[16] = Volume of distribution at steady state in Sprague-Dawley rat at 3 mg/kg, iv or 10 mg/kg, po administered as single dose via gavage by LC-MS/MS analysis; assay type: ADME, organism-based; details: in vivo, read-out: Vdss
[17] = Drug level in plasma of Sprague-Dawley rat at 10 mg/kg, po administered as single dose via gavage measured at 32 hrs by LC-MS/MS analysis; assay type: ADME, organism-based
Monoglyceride lipase = biological target: T2, Monoglyceride lipase (Homo sapiens, UniProt Q99685); experiment: Inhibition of MAGL (unknown origin) up to 10 uM
T2 sequence (Q99685 whole entry): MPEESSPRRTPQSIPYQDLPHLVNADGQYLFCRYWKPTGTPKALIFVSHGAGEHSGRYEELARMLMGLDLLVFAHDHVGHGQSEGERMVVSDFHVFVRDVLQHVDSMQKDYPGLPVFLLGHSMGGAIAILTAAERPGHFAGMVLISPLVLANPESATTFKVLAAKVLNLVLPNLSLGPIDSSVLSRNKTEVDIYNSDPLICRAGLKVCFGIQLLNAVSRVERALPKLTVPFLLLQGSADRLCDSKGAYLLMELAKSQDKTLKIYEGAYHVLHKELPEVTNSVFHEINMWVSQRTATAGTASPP

[18] = Drug level in liver of Sprague-Dawley rat at 10 mg/kg, po administered as single dose via gavage measured at 48 hrs by LC-MS/MS analysis; assay type: ADME, organism-based; details: read-out: Drug uptake
CYP3A4 [19] = experiment: Selectivity ratio of IC50 for CYP3A4 in human liver microsomes using testosterone as substrate to IC50 for human transmembrane domain deficient FFAH expressed in Escherichia coli; assay type: toxicity; details: probe testosterone, read-out: Ratio IC50
[20] = Drug level in plasma of Sprague-Dawley rat at 10 mg/kg, po administered as single dose via gavage measured at 8 hrs by LC-MS/MS analysis; assay type: ADME, organism-based

Sequence of Cytochrome P450 3A4 (P08684 whole entry): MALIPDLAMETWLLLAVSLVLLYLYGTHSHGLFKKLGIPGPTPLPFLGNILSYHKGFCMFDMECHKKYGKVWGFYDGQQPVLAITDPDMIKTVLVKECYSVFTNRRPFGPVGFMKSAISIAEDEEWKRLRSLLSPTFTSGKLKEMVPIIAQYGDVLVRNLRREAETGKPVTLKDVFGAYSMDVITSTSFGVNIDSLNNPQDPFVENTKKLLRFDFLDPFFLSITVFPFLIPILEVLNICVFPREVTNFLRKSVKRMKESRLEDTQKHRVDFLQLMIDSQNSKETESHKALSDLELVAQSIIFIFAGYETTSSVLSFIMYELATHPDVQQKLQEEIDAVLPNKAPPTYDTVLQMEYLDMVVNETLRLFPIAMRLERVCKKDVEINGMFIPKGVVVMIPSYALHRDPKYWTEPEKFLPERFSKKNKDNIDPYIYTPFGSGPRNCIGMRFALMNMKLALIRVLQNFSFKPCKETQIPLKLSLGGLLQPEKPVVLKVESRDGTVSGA
Sequence of Cytochrome P450 2D6 (P10635 whole entry, the tested form may be a part): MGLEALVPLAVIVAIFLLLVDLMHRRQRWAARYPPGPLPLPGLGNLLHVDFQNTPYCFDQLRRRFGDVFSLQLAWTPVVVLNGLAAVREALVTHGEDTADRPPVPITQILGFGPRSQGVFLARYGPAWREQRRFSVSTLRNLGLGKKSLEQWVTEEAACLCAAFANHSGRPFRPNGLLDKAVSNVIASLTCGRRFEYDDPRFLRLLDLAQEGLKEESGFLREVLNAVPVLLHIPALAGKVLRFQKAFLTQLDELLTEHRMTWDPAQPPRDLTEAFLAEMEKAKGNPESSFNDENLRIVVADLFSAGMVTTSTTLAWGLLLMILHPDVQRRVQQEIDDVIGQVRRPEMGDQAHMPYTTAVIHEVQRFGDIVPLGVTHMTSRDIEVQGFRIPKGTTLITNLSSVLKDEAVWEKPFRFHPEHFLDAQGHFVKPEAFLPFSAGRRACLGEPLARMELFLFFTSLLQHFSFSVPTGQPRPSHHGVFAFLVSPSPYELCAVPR
Sequence of Cytochrome P450 2C9 (P11712 whole entry, the tested form may be a part): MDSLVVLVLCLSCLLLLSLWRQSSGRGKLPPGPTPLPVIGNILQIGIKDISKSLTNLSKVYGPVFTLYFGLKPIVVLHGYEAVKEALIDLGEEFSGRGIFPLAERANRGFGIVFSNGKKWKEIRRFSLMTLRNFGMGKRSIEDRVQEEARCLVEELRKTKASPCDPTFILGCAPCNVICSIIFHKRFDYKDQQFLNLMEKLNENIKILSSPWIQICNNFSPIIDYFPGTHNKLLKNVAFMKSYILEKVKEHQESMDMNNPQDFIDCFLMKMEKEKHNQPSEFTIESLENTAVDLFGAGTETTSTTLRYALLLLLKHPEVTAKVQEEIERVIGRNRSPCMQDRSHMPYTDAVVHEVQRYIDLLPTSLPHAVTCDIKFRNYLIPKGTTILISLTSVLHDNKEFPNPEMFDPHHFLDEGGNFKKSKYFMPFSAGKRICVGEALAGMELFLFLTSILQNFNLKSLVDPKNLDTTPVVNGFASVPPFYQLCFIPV

SMILES | selectivity ratio (CYP3A4 [1]) | Kp [2] | concentration at 4 h [3] | clearance [4] | AUC(0-t) at 48 h [6] | concentration at 4 h [7] | Kp [8] | AUC(0-t) at 48 h [10] | IC50 (Cytochrome P450 2D6) | IC50 [11] | AUC(0-t) at 48 h [12] | concentration at 2 h [13] | Vd [14] | IC50 (Cytochrome P450 2C9) | IC50 (Cytochrome P450 3A4) | concentration at 8 h [15] | Vd [16] | concentration at 32 h [17] | concentration at 48 h [18] | concentration at 8 h [20] | other results
Nc1ncc(C(=O)N[C@H]2CC/C(=C\c3cccc(Oc4ccc(C(F)(F)F)cn4)c3)CC2)cn1 (stereo not drawn) | > 5000 | 4.3 | 38 µM | 0.6 mL/min/kg | 1020 µM·h | 7.8 µM | 0.8 | 192 µM·h | > 12.5 µM | 0.0006 µM | 237 µM·h | 7.2 µM | 0.8 L/kg | 6.5 µM | > 12.5 µM | 34 µM | 0.8 L/kg | 2.7 µM | 8.9 µM | 7.3 µM | selectivity ratio (CYP3A4 [5]): > 5000; selectivity ratio (CYP2C19): > 5000; Ratio IC50 [9]: > 10000; selectivity ratio (CYP1A2): > 5000; inhibition (INH) (Monoglyceride lipase): Not Active; selectivity ratio (CYP3A4 [19]): > 5000
Cc1cc(C(=O)N[C@H]2CC/C(=C\c3cccc(Oc4ccc(C(F)(F)F)cn4)c3)CC2)cnc1N (stereo not drawn) | > 5000 | 6.9 | 37 µM | 0.8 mL/min/kg | 1130 µM·h | 4.8 µM | 0.5 | 80.1 µM·h | > 12.5 µM | 0.0013 µM | 166 µM·h | 6.7 µM | 1.2 L/kg | 9.2 µM | > 12.5 µM | 37 µM | 1.2 L/kg | 3 µM | 9.1 µM | 5.3 µM | selectivity ratio (CYP3A4 [5]): > 5000; selectivity ratio (CYP2C19): > 5000; Ratio IC50 [9]: > 10000; selectivity ratio (CYP1A2): > 5000; inhibition (INH) (Monoglyceride lipase): Not Active; selectivity ratio (CYP3A4 [19]): > 5000
O=C(N[C@H]1CC/C(=C\c2cccc(Oc3ccc(C(F)(F)F)cn3)c2)CC1)c1cccnc1 (stereo not drawn) |  | 10.5 | 43 µM | 2.4 mL/min/kg | 580 µM·h | 3.3 µM | 1.5 | 84 µM·h | > 10 µM | 0.0007 µM | 55 µM·h | 7.2 µM | 0.9 L/kg | 2.7 µM | 0.4 µM | 32 µM | 0.9 L/kg |  |  | 3 µM | 
Nc1ccc(C(=O)N[C@H]2CC/C(=C\c3cccc(Oc4ccc(C(F)(F)F)cn4)c3)CC2)cn1 (stereo not drawn) |  | 9.2 | 69.7 µM | 0.7 mL/min/kg | 1950 µM·h | 8.6 µM | 0.6 | 135 µM·h | > 12.5 µM | 0.0012 µM | 212 µM·h | 8.8 µM | 0.6 L/kg | 3.4 µM | > 12.5 µM | 74.9 µM | 0.6 L/kg | 2.2 µM | 16.2 µM | 8.2 µM | 
